The values that follow come from US11344588B2, “Lactobacillus plantarum CJLP17 having antiviral and immunomodulatory efficacies and composition comprising the same” (CJ CHEILJEDANG CORPORATION, priority 2018, dated 2022).

The subject of this assay is CJLP17 strain. The experiment in a line: Antibiotic susceptibility test with antibiotic discs. The conditions noted are these: antibiotic disc on CJLP17 lawn, Mueller Hinton II medium, 37° C., 24 hours. Format: cell-based, Lactobacillus plantarum. The procedure:
The CJLP17 strain was inoculated into a liquid MRS medium and subjected to a static culture at 37° C. for 24 hours. The thus-cultured bacteria were soaked in sterilized cotton swabs and smeared on a solid Mueller Hinton II medium (Difco), and then antibiotic discs were placed on the medium and incubated at 37° C. for 24 hours. Ampicillin, clindamycin, gentamicin, kanamycin, erythromycin, ampicillin/sulbactam, chloramphenicol, and streptomycin discs (Oxoid, UK) were used as antibiotic discs for the antibiotic test.
On to `CC1(C)S[C@@H]2[C@H](NC(=O)[C@H](N)c3ccccc3)C(=O)N2[C@H]1C(=O)O` [Amp10 (Ampicillin), Ampicillin], for which the “Radius of Growth Inhibition Area Centered Around Antibiotics” value is on record as 7.5 mm.

As to `CCC[C@@H]1C[C@@H](C(=O)N[C@@H]([C@H]2O[C@H](SC)[C@H](O)[C@@H](O)[C@H]2O)[C@H](C)Cl)N(C)C1` [C30 (Clindamycin), Clindamycin], the “Radius of Growth Inhibition Area Centered Around Antibiotics” value is 7 mm.

`[H]/N=C(/N)N[C@H]1[C@H](O)[C@@H](O)[C@H](O[C@@H]2O[C@@H](C)[C@](O)(C=O)[C@H]2O[C@@H]2O[C@@H](CO)[C@H](O)[C@@H](O)[C@@H]2NC)[C@@H](N/C(N)=N\[H])[C@@H]1O` [DA2 (Streptomycin), Streptomycin]: the “Radius of Growth Inhibition Area Centered Around Antibiotics” value is on record as 4.5 mm.

Consider `CC[C@H]1OC(=O)[C@H](C)[C@@H](O[C@H]2C[C@@](C)(OC)[C@@H](O)[C@H](C)O2)[C@H](C)[C@@H](O[C@@H]2O[C@H](C)C[C@H](N(C)C)[C@H]2O)[C@](C)(O)C[C@@H](C)C(=O)[C@H](C)[C@@H](O)[C@]1(C)O` [E15 (Erythromycin), Erythromycin], for which the “Radius of Growth Inhibition Area Centered Around Antibiotics” value came out at 12 mm.

Consider `NC[C@H]1O[C@H](O[C@H]2[C@H](O)[C@@H](O[C@H]3O[C@H](CO)[C@@H](O)[C@H](N)[C@H]3O)[C@H](N)C[C@@H]2N)[C@H](O)[C@@H](O)[C@@H]1O` [K30 (Kanamycin), Kanamycin], for which the “Radius of Growth Inhibition Area Centered Around Antibiotics” value is 1.5 mm.

Consider `O=C(N[C@H](CO)[C@H](O)c1ccc([N+](=O)[O-])cc1)C(Cl)Cl` [S10 (Chloramphenicol), Chloramphenicol], for which the “Radius of Growth Inhibition Area Centered Around Antibiotics” value is reported as 3.5 mm.

Regarding “Ampicillin/Sulbactam [SAM20 (Ampicillin/Sulbactam)]”, the “Radius of Growth Inhibition Area Centered Around Antibiotics” value came out at 7 mm.

Turning to Gentamicin [CN120 (Gentamicin)], the “Radius of Growth Inhibition Area Centered Around Antibiotics” value was determined as 5 mm.
